Experimental data: patent US4950677A, “Benzimidazole derivative compounds and method of making” (Hoffmann-La Roche Inc., priority 1987, dated 1990)
Where two headings read alike, the source gives them in different places.

Legend:
[1] = tested on: indomethacin-induced lesions of the stomach; assay: anti-ulcer activity (protection from indomethacin-induced stomach lesions); type: in vivo; details: Rattus norvegicus, po, male rats, given 1 hour before and 2 hours after 20 mg/kg indomethacin p.o.; dosage protecting 50% of animals from lesions
Experimental: The experimental procedure described hereinafter was used to determine the anti-ulcer activity:
A number of groups of 8 male rats each with a body weight of 130-150 g are used for each dosage of a test substance. Prior to the beginning of the experiment the animals receive no food for 24 hours, but receive water ad libitum. Various dosages of the substances to be tested (suspended in 0.5% tragacanth) or the vehicle alone (controls) are administered twice perorally, namely. 1 hour before and 2 hours after the peroral administration 20 mg/kg of indomethacin. In the control animals, this dosage of indomethacin leads to lesions of the stomach within 5 hours. The animals are killed 6 hours after the first administration of the substance under investigation (or of the vehicle alone). The rats which remain protected from the occurrence of macroscopically visible lesions to the mucous membrane of the stomach are counted. The ED50 is that dosage of a test substance at which 50% of the animals are protected from the occurence of such lesions.
(§1) In the following Table there are given for a series of representative compounds of formula I the results of the testing with respect to their anti-ulcer activity and to their gastric secretion inhibiting activity. Moreover, this Table contains data concerning the acute toxicity (LD50 in the case of single oral administration to mice).

[2] = acute toxicity (single oral administration); details: mouse, in vivo, read-out: Toxicity LD 50
Text: as §1

[3] = tested on: gastric acid production caused by 4-methylhistamine; assay: gastric acid secretion-inhibiting activity (4-methylhistamine-stimulated, Heidenhain pouch); type: in vivo; details: Canis lupus familiaris, po; p.o. (dry powder in gelatin capsules), conscious beagle hounds, i.v. infusion of 4-methylhistamine; 50% inhibition vs controls
Experimental: The experimental procedure described hereinafter was used to determine the gastric acid secretion-inhibiting activity:
A part of the stomach fundus of female and male beagle hounds is separated from the remainder of the stomach in the form of a pouch of the Heidenhain type by a modification of the method described in Rudick et al., J. Surgical Research 7, 383-398 (1967). In the pouch there is fitted a steel cannula which is conducted externally through the abdominal wall. Before each experiment the animals receive no food for 18 hours, but receive water ad libitum. They are conscious and standing during the experiment and their gastric acid secretion is stimulated by the intravenous infusion of 4-methylhistamine, a selective […] of the histamine H2 -receptors. The gastric acid production is determined in 15 minute fractions of the stomach pouch juice. As soon as the gastric acid production has a constant value, the substances to be tested are administered orally as a dry powder filled into gelatin capsules. The ED50 is that dosage of a test substance which brings about a 50% inhibition of the gastric acid production caused by 4-methylhistamine in the treated animals in comparison to the controls.
as §1

[4] = p.o., single oral administration to mice

## COc1cc[n+](-c2nc3cc(C(F)(F)F)ccc3[n-]2)c(CSCC(C)(C)OC(C)=O)c1C [G, Intramolecularly deprotonized 2-[[(2-acetoxy-2-methylpropyl)thio]methyl]-4-methoxy-3-methyl-1-[5-(trifluoromethyl)-2-benzimidazolyl]pyridinium cation]
[1]
  ED50: 2.8 mg/kg
[2]; po
  LD50: 2500 to 5000 mg/kg
[3]
  ED50: 1.5 mg/kg

## COCCOC(C)(C)CSCc1c(C)c(OC)cc[n+]1-c1nc2cc(C(F)(F)F)ccc2[n-]1 [D, Intramolecularly deprotonized 4-methoxy-2-[[[2-(2-methoxyethoxy)-2-methylpropyl]thio]methyl]-3-methyl-1-[5-(trifluoromethyl)-2-benzimidazolyl]pyridinium cation]
[1]
  ED50: 7 mg/kg
[2]; po
  LD50: 2500 to 5000 mg/kg
[3]
  ED50: 4.8 mg/kg

## COc1cc[n+](-c2nc3cc(C(F)(F)F)ccc3[n-]2)c(CSCC(C)(C)OCCO)c1C [B, Intramolecularly deprotonized 2-[[[2-(2-hydroxyethoxy)-2-methylpropyl]thio]methyl]-4-methoxy-3-methyl-1-[5-(trifluoromethyl)-2-benzimidazolyl]pyridinium cation]
[1]
  ED50: 6.1 mg/kg
[2]; po
  LD50: 2500 to 5000 mg/kg
[3]
  ED50: 3.9 mg/kg

## COc1cc[n+](-c2nc3ccc(C(F)(F)F)cc3[nH]2)c(CSCC(C)(C)OC(C)=O)c1C.[Cl-] [F, 2-[[(2-Acetoxy-2-methylpropyl)thio]methyl]-4-methoxy-3-methyl-1-[5-(trifluoromethyl)-2-benzimidazolyl]pyridinium chloride]
[1]
  ED50: 1.9 mg/kg
[2]; [4]
  LD50: 1250 to 2500 mg/kg
[3]
  ED50: 1.8 mg/kg

## CCOC(C)(C)CSCc1c(C)c(OC)cc[n+]1-c1nc2cc(C(F)(F)F)ccc2[n-]1 [J, Intramolecularly deprotonized 2-[[(2-ethoxy-2-methylpropyl)thio]methyl]-4-methoxy-3-methyl-1-[5-(trifluoromethyl)-2-benzimidazolyl]pyridinium cation]
[1]
  ED50: 4.6 mg/kg
[2]; po
  LD50: > 5000 mg/kg
[3]
  ED50: 3.7 mg/kg

## CCOC(C)(C)CSCc1c(C)c(OC)cc[n+]1-c1nc2ccc(C(F)(F)F)cc2[nH]1.[Cl-] [I, 2-[[(2-Ethoxy-2-methylpropyl)thio]methyl]-4-methoxy-3-methyl-1-[5-(trifluoromethyl)-2-benzimidazolyl]pyridinium chloride]
[1]
  ED50: 4.1 mg/kg
[2]; [4]
  LD50: 2500 to 5000 mg/kg
[3]
  ED50: 3.8 mg/kg

## CCOC(C)(C)CSCc1c(C)c(OC)cc[n+]1-c1nc2ccc(C(F)(F)F)cc2[nH]1.CS(=O)(=O)[O-] [H, 2-[[(2-Ethoxy-2-methylpropyl)thio]methyl]-4-methoxy-3-methyl-1-[5-(trifluoromethyl)-2-benzimidazolyl]pyridinium methanesulfonate]
[1]
  ED50: 3.2 mg/kg
[3]
  ED50: 4.3 mg/kg

## COc1cc[n+](-c2nc3ccc(C(F)(F)F)cc3[nH]2)c(CSCC(C)(C)OCCO)c1C.CS(=O)(=O)[O-] [A, 2-[[[2-(2-Hydroxyethoxy)-2-methylpropyl]thio]-methyl]-4-methoxy-3-methyl-1-[5-(trifluoromethyl)-2-benzimidazolyl]pyridinium methanesulfonate]
[1]
  ED50: 4.4 mg/kg
[2]; [4]
  LD50: 2500 to 5000 mg/kg
[3]
  ED50: 4.9 mg/kg

## COc1cc[n+](-c2nc3ccc(C(F)(F)F)cc3[nH]2)c(CSCC(C)(C)OC(C)=O)c1C.CS(=O)(=O)[O-] [E, 2-[[(2-Acetoxy-2-methylpropyl)thio]methyl]-4-methoxy-3-methyl-1-[5-(trifluoromethyl)-2-benzimidazolyl]pyridinium methanesulfonate]
[1]
  ED50: 3.2 mg/kg
[2]; [4]
  LD50: 2500 to 5000 mg/kg
[3]
  ED50: 3 mg/kg

## COCCOC(C)(C)CSCc1c(C)c(OC)cc[n+]1-c1nc2ccc(C(F)(F)F)cc2[nH]1.CS(=O)(=O)[O-] [C, 4-Methoxy-2-[[[2-(2-methoxyethoxy)-2-methylpropyl}thio]methyl]-3-methyl-1-[5-(trifluoromethyl)-2-benzimidazolyl]pyridinium methanesulfonate]
[1]
  ED50: 6 mg/kg
[2]; [4]
  LD50: 1000 to 2000 mg/kg
[3]
  ED50: 5.5 mg/kg
